Literature values in US9029427B2, “Controlled release solid preparation” (Asahi Kasei Chemicals Corporation, priority 2005, dated 2015).

Conditions: water

Structure (SMILES) | amount of solvent required for dissolving 1 g of solute
CCOc1ccccc1C(N)=O [Ethenzamide] | ≥ 10000 cm^3
O=C([O-])c1ccccc1O.[Na+] [sodium salicylate] | less than 1 cm^3
